Literature values in patent publication US20180117047A1, “DRUG FOR PREVENTING AND/OR TREATING DEMENTIA” (NATIONAL UNIVERSITY CORPORATION TOTTORI UNIVERSITY, priority 2015, published 2018).
Like-named read-outs stand apart in the source and are kept apart here.

Tested on: F11 cell strain, fusion cells of rat primarily cultured nerve cells and mouse neuroblastomas, expressing N141I mutant of presenilin 2
Conditions: cited from earlier work

| Structure (SMILES) | Nerve cell death caused by addition of ecdysone (100 nM xanthine oxidase inhibitor simultaneously with 100 μM acetyl-L-aspartyl-L-glutamyl-L-valyl-L-aspart-1-al (caspase inhibitor)) | Nerve cell death caused by addition of ecdysone (100 μM oxypurinol simultaneously with 100 μM acetyl-L-aspartyl-L-glutamyl-L-valyl-L-aspart-1-al (caspase inhibitor)) | Nerve cell death caused by addition of ecdysone (100 μM oxypurinol simultaneously with 300 μM apocynin (NADPH oxidase inhibitor)) |
| --- | --- | --- | --- |
| COc1cc(-c2cnn3c(O)ncnc23)ccc1[S+]([O-])c1ccccc1.[Na] (single isomer, unassigned; (-)) [(−)-4-hydroxy-8-(3-methoxy-4-phenylsulfinylphenyl)pyrazolo[1,5-a]-1,3,5-triazine sodium salt] | suppressed | – | – |
| O=c1[nH]c(=O)c2c[nH]nc2[nH]1 [oxypurinol] | – | suppressed | suppressed |
